Calls of active or inactive are those of the source. No cut-off for these calls is given here.
How the values were obtained:
[1] = molecular target: T1, Bromodomain-containing protein 2 (Homo sapiens, UniProt P25440); assay: Binding affinity to human BRD2 domain 2 assessed as dissociation constant by isothermal titration calorimetry assay
[2] = molecular target: T2, Bromodomain-containing protein 3 (Homo sapiens, UniProt Q15059); assay: Binding affinity to human BRD3 domain 1 assessed as dissociation constant by isothermal titration calorimetry assay
HAL-01 = assay: Anticancer activity against human HAL-01 cells assessed as cell growth inhibition by CellTiter-Glo luminescent assay; assay type: functional, cell-based
[3] = molecular target: T3, Histone deacetylase (Homo sapiens) (UniProt Q13547+O15379+Q9UBN7+Q92769+Q9UQL6+Q8WUI4+Q9BY41+Q96DB2+P56524+Q9UKV0+Q969S8); assay: Inhibition of HDAC in human K562 cells assessed as decrease in MYC expression measured after 24 to 72 hrs by Western blot analysis; assay type: cell-based; details: time 24-72 hrs
Histone deacetylase 3 = Histone deacetylase 3 (Homo sapiens, UniProt O15379); assay: Inhibition of human HDAC3 assessed as target activity using fluorogenic substrate ZMAL for 90 min by microplate reader at 355nm
[4] = molecular target: T4, Protein deacetylase HDAC6 (Homo sapiens, UniProt Q9UBN7); assay: Inhibition of human recombinant HDAC6 assessed as fluorescence using fluorogenic substrate ZMAL incubated for 90 min by microplate reader
T4 sequence (Q9UBN7 whole entry): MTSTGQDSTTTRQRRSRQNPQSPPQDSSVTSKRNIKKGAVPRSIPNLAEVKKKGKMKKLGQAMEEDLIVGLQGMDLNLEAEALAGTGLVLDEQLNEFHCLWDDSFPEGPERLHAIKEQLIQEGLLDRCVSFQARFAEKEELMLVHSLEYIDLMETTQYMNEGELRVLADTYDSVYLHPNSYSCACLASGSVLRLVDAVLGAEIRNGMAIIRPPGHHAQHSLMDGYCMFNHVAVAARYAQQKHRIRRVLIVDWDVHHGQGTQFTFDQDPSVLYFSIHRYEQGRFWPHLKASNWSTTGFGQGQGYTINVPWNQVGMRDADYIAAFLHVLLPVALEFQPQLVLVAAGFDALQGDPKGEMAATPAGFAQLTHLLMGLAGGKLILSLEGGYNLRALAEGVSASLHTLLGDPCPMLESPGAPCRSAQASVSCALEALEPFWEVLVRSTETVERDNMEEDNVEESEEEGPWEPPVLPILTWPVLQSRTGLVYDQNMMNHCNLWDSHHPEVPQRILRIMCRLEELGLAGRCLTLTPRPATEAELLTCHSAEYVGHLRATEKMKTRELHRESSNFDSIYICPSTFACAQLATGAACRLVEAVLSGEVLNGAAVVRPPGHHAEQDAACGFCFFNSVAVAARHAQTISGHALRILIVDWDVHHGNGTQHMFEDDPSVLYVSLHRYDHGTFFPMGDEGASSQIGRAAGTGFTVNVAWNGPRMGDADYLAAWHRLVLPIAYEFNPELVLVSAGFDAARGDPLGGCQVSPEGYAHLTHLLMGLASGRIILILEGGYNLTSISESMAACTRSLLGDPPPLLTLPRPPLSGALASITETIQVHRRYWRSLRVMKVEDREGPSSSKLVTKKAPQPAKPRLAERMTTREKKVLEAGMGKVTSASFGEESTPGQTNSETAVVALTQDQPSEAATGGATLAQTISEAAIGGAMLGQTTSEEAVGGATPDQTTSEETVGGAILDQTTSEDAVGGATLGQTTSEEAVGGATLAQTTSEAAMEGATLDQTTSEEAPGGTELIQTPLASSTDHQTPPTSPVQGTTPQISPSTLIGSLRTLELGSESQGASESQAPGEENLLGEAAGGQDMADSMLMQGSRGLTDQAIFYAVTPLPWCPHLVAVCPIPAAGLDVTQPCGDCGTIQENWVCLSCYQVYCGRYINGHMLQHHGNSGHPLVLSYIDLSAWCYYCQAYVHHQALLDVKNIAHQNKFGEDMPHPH

HL-60 [5] = assay: Anticancer activity against human HL-60 cells assessed as cell growth inhibition by CellTiter-Glo luminescent assay; assay type: functional, cell-based
Histone deacetylase 1 = Histone deacetylase 1 (Homo sapiens, UniProt Q13547); assay: Inhibition of human recombinant HDAC1 assessed as fluorescence using fluorogenic substrate ZMAL incubated for 90 min by microplate reader
K562 [6] = assay: Anticancer activity against human K562 cells assessed as cell growth inhibition by CellTiter-Glo luminescent assay; assay type: functional, cell-based
[7] = molecular target: T1, Bromodomain-containing protein 2; assay: Binding affinity to human BRD2 domain 1 assessed as dissociation constant by isothermal titration calorimetry assay
[8] = molecular target: T5, Bromodomain-containing protein 7 (Homo sapiens, UniProt Q9NPI1); assay: Binding affinity to human BRD7 assessed as dissociation constant by isothermal titration calorimetry assay
T5 sequence (Q9NPI1 whole entry): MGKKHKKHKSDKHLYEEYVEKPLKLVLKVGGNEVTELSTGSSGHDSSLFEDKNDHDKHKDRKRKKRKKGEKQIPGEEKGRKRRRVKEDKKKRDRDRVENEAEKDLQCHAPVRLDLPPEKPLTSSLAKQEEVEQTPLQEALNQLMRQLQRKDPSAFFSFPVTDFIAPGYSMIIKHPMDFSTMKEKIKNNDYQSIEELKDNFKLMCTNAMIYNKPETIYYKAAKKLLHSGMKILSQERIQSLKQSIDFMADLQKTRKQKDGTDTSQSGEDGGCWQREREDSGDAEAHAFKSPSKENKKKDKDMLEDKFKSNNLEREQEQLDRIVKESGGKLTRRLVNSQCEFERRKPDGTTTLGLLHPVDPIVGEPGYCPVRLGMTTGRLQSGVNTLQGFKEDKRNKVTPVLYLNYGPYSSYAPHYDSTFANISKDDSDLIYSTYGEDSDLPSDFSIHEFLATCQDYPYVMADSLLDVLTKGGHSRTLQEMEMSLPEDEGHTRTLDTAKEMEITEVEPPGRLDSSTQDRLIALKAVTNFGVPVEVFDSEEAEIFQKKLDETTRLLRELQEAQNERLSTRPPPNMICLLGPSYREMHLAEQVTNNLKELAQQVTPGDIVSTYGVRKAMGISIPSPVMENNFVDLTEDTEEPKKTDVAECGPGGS

[9] = molecular target: T2, Bromodomain-containing protein 3; assay: Binding affinity to human BRD3 domain 2 assessed as dissociation constant by isothermal titration calorimetry assay
REH = assay: Anticancer activity against human REH cells assessed as cell growth inhibition by CellTiter-Glo luminescent assay; assay type: functional, cell-based
[10] = molecular target: T3, Histone deacetylase (Homo sapiens); assay: Inhibition of HDAC in human K562 cells assessed as increase in acetylated alpha-tubulin measured after 48 hrs by Western blot analysis; assay type: cell-based
TALL-1 [11] = assay: Anticancer activity against human TALL-1 cells assessed as cell growth inhibition by CellTiter-Glo luminescent assay; assay type: functional, cell-based
Histone deacetylase 2 = Histone deacetylase 2 (Homo sapiens, UniProt Q92769); assay: Inhibition of human HDAC2 assessed as target activity using fluorogenic substrate ZMAL for 90 min by microplate reader at 355nm
HPBALL [12] = assay: Anticancer activity against human HPBALL cells assessed as cell growth inhibition by CellTiter-Glo luminescent assay; assay type: functional, cell-based
[13] = molecular target: T3, Histone deacetylase (Homo sapiens); assay: Inhibition of HDAC in human K562 cells assessed as increase in acetylated histone H3 measured after 48 hrs by Western blot analysis; assay type: cell-based
[14] = molecular target: Bromodomain-containing protein 4 (Homo sapiens, UniProt O60885); assay: Binding affinity to human BRD4 domain 1 (unknown origin) assessed as dissociation constant by isothermal titration calorimetry assay
K562 [15] = assay: Induction of apoptosis in human K562 cells assessed as increase cleaved PARP expression measured after 24 to 72 hrs by Western blot analysis; assay type: functional, cell-based; details: time 24-72 hrs
K562 [16] = assay: Induction of apoptosis in human K562 cells assessed as apoptosis at 6 uM after 24 to 72 hrs using annexin V/PI followed by flow cytometry; assay type: functional, cell-based; details: time 24-72 hrs
HPBALL [17] = assay: Anticancer activity against human HPBALL cells assessed as reduction in total number of colony forming units at 5 uM measured after 24 hrs by colony formation assay; assay type: functional, cell-based
HL-60 [18] = assay: Cytotoxicity against human HL-60 cells assessed as cell viability at 5 uM by CellTiter-Glo luminescent assay; assay type: functional; details: read-out: Activity
MOLT-4 = assay: Cytotoxicity against human MOLT-4 cells assessed as cell viability at 5 uM by CellTiter-Glo luminescent assay; assay type: functional; details: read-out: Activity
TALL-1 [19] = assay: Cytotoxicity against human TALL-1 cells assessed as cell viability at 5 uM by CellTiter-Glo luminescent assay; assay type: functional; details: read-out: Activity
HPBALL [20] = assay: Anticancer activity against human HPBALL cells assessed as reduction in size of colony at 5 uM measured after 24 hrs by colony formation assay; assay type: functional, cell-based

T2 sequence (Q15059 whole entry, the tested form may be a part): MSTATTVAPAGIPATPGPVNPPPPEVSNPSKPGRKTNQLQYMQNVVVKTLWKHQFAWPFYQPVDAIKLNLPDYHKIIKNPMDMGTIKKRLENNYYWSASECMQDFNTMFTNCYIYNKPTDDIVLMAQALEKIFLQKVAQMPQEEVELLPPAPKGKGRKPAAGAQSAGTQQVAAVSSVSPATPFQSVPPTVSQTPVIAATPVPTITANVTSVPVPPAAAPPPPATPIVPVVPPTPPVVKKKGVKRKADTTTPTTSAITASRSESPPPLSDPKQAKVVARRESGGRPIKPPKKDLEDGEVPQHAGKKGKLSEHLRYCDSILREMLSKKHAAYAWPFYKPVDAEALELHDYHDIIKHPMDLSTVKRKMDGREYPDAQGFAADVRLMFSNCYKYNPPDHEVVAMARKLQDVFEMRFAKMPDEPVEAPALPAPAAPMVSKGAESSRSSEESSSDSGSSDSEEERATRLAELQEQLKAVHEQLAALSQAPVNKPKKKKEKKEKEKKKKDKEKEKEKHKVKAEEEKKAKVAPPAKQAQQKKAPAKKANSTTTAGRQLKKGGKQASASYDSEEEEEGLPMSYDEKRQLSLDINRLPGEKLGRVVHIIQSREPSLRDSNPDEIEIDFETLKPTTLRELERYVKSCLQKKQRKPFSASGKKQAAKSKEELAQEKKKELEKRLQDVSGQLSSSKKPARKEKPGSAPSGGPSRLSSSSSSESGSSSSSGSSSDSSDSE
Histone deacetylase 1, sequence (Q13547 whole entry): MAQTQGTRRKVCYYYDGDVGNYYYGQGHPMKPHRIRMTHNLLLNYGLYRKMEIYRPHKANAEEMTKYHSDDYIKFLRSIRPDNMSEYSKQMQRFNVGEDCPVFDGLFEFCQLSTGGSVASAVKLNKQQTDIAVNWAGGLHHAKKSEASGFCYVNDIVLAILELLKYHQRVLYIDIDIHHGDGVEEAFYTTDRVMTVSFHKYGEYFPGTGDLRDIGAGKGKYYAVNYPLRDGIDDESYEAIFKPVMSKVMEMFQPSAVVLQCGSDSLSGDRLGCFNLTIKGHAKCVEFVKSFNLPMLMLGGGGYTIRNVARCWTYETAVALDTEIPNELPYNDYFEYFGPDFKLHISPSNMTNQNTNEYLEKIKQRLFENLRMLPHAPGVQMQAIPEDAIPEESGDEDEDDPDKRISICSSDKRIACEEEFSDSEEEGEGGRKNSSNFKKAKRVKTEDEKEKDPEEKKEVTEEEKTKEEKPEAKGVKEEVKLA
T1 sequence (P25440 whole entry, the tested form may be a part): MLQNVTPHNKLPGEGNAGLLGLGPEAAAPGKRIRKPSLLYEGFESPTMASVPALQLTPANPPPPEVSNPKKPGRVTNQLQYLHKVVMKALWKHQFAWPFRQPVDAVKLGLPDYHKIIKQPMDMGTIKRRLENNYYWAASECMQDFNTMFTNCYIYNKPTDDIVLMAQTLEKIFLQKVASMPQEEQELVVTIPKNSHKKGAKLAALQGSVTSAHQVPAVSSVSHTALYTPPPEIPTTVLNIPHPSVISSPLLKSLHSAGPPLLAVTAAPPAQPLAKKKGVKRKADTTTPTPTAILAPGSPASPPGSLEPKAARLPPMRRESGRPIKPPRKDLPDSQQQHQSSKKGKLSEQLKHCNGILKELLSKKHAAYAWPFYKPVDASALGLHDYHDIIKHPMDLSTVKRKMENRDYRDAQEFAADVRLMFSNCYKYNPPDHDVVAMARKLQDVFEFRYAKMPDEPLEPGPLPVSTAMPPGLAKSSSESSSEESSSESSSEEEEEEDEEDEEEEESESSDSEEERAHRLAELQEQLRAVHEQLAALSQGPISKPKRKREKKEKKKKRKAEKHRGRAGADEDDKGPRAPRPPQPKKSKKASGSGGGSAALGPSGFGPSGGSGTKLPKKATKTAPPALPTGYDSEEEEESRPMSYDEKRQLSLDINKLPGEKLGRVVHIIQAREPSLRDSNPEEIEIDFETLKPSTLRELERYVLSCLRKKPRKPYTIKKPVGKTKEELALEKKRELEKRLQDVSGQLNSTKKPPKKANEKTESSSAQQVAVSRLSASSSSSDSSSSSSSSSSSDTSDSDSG
Histone deacetylase 2, sequence (Q92769 whole entry): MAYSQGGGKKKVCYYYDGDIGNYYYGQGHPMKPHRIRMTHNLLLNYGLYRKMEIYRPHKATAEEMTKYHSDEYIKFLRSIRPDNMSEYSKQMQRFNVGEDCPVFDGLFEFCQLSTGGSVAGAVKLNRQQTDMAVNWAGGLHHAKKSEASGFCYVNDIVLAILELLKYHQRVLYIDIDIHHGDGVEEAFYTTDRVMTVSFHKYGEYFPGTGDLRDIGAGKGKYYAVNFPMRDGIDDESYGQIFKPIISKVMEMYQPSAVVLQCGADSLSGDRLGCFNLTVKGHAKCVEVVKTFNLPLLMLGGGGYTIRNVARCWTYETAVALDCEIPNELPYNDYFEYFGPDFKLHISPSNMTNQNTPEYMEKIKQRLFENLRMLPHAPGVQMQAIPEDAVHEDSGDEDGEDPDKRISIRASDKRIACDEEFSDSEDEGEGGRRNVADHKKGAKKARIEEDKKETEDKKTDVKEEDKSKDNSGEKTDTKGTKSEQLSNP
Histone deacetylase 3, sequence (O15379 whole entry): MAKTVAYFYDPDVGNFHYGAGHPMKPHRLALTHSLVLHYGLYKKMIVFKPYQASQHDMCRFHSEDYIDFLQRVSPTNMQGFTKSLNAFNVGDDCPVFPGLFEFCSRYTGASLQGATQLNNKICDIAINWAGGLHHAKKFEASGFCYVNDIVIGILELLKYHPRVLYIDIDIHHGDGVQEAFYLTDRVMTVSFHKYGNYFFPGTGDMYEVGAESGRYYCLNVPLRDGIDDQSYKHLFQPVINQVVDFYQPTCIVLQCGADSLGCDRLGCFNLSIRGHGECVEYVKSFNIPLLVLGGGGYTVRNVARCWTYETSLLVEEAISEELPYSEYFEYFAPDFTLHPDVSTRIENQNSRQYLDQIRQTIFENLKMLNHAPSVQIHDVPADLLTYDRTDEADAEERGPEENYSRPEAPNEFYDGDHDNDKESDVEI

SMILES	IC50 [4] [nM]	IC50 (Histone deacetylase 1) [nM]	Kd ([14]; read-out: Kd) [nM]	viability at 5 µM (HL-60 [18]) [%]	viability at 5 µM (MOLT-4) [%]	viability at 5 µM (TALL-1 [19]) [%]	other results
CCc1c(C(=O)Nc2cccc(/C=C/C(=O)NO)c2)[nH]c(C)c1C(C)=O	45	125	4500	–	–	–	Kd [1]: > 10000 nM; Kd [2]: > 10000 nM; IC50 (HAL-01): > 25000 nM; Activity [3]: Active; IC50 (Histone deacetylase 3): 149 nM; IC50 (HL-60 [5]): > 25000 nM; IC50 (K562 [6]): 7380 nM; Kd [7]: 7700 nM; Kd [8]: > 10000 nM; Kd [9]: > 10000 nM; IC50 (REH): > 25000 nM; inhibition [10]: Active; IC50 (TALL-1 [11]): 5160 nM; IC50 (Histone deacetylase 2): 168 nM; IC50 (HPBALL [12]): > 25000 nM; Activity [13]: Active
O=C(CCCCCCNC(=O)c1cnc(N(c2ccccc2)c2ccccc2)nc1)NO [RICOLINOSTAT]	–	–	–	–	–	–	IC50 (HAL-01): > 25000 nM; Activity (K562 [15]): Active; IC50 (HL-60 [5]): 10400 nM; IC50 (K562 [6]): 6020 nM; IC50 (REH): > 25000 nM; Activity (K562 [16]): Active; IC50 (TALL-1 [11]): 3880 nM; IC50 (HPBALL [12]): 6700 nM
CCc1c(C(=O)Nc2cccc(CCC(=O)Nc3ccccc3N)c2)[nH]c(C)c1C(C)=O	> 100000	28200	6920	–	–	–	–
Cc1c2c(c(C(=O)Nc3cc(S(=O)(=O)N4CCOCC4)ccc3OCCCCCCCC(=O)NO)n1C)CCCCC2=O	320	330	–	80.8	115	82.3	Activity (HPBALL [17]): Active; Activity (HPBALL [20]): Active
COC(=O)CCCCCCCOc1ccc(S(=O)(=O)N2CCOCC2)cc1NC(=O)c1c2c(c(C)n1C)C(=O)CCCC2	> 10000	> 10000	34	104	68.6	70.3	–
Cc1sc2c(c1C)C(c1ccc(Cl)cc1)=N[C@@H](CC(=O)Nc1ccc(O)cc1)c1nnc(C)n1-2 [BIRABRESIB]	–	–	–	–	–	–	IC50 (HAL-01): 2530 nM; IC50 (HL-60 [5]): 820 nM; IC50 (K562 [6]): 2840 nM; IC50 (REH): 15300 nM; IC50 (TALL-1 [11]): 1350 nM; IC50 (HPBALL [12]): 7010 nM
Cn1cccc1C(=O)Nc1cccc(CCC(=O)NO)c1	620	1280	–	–	–	–	Kd [14]: Not Active
CCc1c(C(=O)Nc2cc(/C=C/C(=O)NO)ccc2O)[nH]c(C)c1C(C)=O	80	142	2660	88.2	105	87.6	–
CCc1c(C(=O)Nc2cc(S(=O)(=O)Nc3cccc(/C=C/C(=O)NO)c3)ccc2OC)[nH]c(C)c1C(C)=O	73	97	3670	98.7	106	85.6	–
CCc1c(C(=O)Nc2cccc(CCC(=O)NO)c2)[nH]c(C)c1C(C)=O	658	900	11500	–	–	–	–
CCc1c(C(=O)Nc2cccc(CCC(=O)OC)c2)[nH]c(C)c1C(C)=O	> 33300	> 33300	8260	–	–	–	–
CCc1c(C(=O)Nc2cc(S(=O)(=O)N(CC)CC)ccc2O)[nH]c(C)c1C(C)=O	–	–	–	–	–	–	Kd [1]: 830 nM; Kd [2]: 380 nM; Kd [7]: 170 nM; Kd [9]: 490 nM

From ChEMBL document CHEMBL5055650, “4-Acyl Pyrrole Capped HDAC Inhibitors: A New Scaffold for Hybrid Inhibitors of BET Proteins and Histone Deacetylases as Antileukemia Drug Leads” (J Med Chem, 2021)
